Values of other authors as cited in US10875836B2, “Callyspongiolide, analogs thereof and uses thereof” (Purdue Research Foundation, priority 2016, dated 2020).

Legend:
[1] = test system: human Ramos B lymphocytes
[2] = test system: human Jurkat J16 T lymphocytes

Compound | cytotoxicity (K562 cell line) | cytotoxicity (A549 cell line) | IC50 [1] | IC50 [2]
callyazepin | moderate cytotoxicity | moderate cytotoxicity |  | 
C[C@@H]1C/C=C\C(=O)O[C@H](/C=C/C#C/C=C/C(C)(C)[C@@H](O)c2cccc(O)c2Br)[C@@H](C)/C=C/[C@H](C)C[C@H](OC(N)=O)C1 [callyspongiolide] |  |  | 60 nM | 70 nM
